The record followed here is US10793601B2, “Therapeutic spalt-like transcription factor 4 (SALL4) peptide” (National University of Singapore, priority 2016, dated 2020).

The target in experiment [1] is T1, RBBp4 (Homo sapiens, UniProt Q09028).
T1 construct: purchased SinoBiological
The experiment can be described thus: Isothermal titration calorimetry (ITC) of SALL4 peptide against RBBp4. To be noted: 25° C., 1:1 binding model. As for the experimental part: (§1) FIGS. 1A-1B. Binding affinity of WT SALL4 (1-12 aa) to RBBp4.
ITC was carried out with an Auto-iTC200 instrument from Microcal Inc. at 25° C. […] of RBBp4 in 50 mM Tris and 100 mM NaCl at pH 7.4 was loaded into the ITC cell. Sal14 peptide at […] was auto-loaded into the syringe. The titration was carried out with 18 injections of 2.4 μl, performed over a period of 30 min with stirring at 1000 rpm. The ITC data was analysed using Origin software from Microcal.

In experiment [2] the target is T1, RBBp4. The experiment can be described thus: Surface plasmon resonance (SPR), RBBp4 immobilised on CM5 chip. Type of experiment: binding. As for the experimental part: as §1
SPR studies were performed using a Biacore T200 biosensor (GE Healthsciences). ˜12,000 resonance units (RU) of RBBp4 were immobilised by amine coupling to the carboxymethylated dextran matrix of a Series S CM5 chip (Biacore, GE Healthcare). Multi cycle kinetics analysis was performed at 25° C. through seven injections of SALL4 peptide (0.5 μM-8 μM). The association time and flow rate were set at 60 s and 30 μl/min respectively. The sensograms obtained were of good quality and kinetic rate constants were determined by curve fitting.

Experiment [3] has as its target T1, RBBp4. The experiment can be described thus: Fluorescence polarization (FP) competition with FITC-labelled SALL4 WT peptide. Type of experiment: binding. To be noted: displacement of FITC-SALL4 WT peptide from RBBp4. How it is done: (§2) FIGS. 3A-3E. Key residues involved in SALL4 (1-12)-RBBp4 binding. […] The difference in the binding free energy (ΔΔGbind) of the alanine mutants (ΔGmutant, Ala7 was mutated to glycine) and wild type (ΔGwild type) was calculated (ΔΔGbind=ΔGmutant−ΔGwild type). ΔΔGbind was tabulated (left) and plotted in a bar chart (right). […] Mutated residues are highlighted in red. The IC50 of each peptide, including WT, was determined by Fluorescence Polarization (FP). Different concentrations of each peptide were titrated into a mixture of 0.04 μM RBBp4 and 0.01 μM of C-labelled FITC-SALL4 WT peptide. Polarization was measured in mP. […] Pep-1 carrier was added to the peptide to facilitate cellular penetration of the peptides.
Peptides were titrated into a master mix of 0.045 μM RBBp4 and […] C-terminal FITC-labelled WT peptide (synthesized by Thermo Scientific). Reactions were incubated at room temperature before the plate was read with an Envision instrument (Perkin Elmer). IC50 values of peptides were determined using Prism (GraphPad).

Experiment [4] concerns SNU398 cells. The experiment is described as follows: Cell viability assay in SNU398 cells. Type of experiment: cell-based. As to conditions: SNU398, Pep-1 carrier added. How it is done:
as §2
FIGS. 5A-5B. Development of a potent therapeutic peptide FFW.
SNU398 was grown in RPMI supplemented with 10% fetal bovine serum (FBS) at 37° C. in a humidified atmosphere of 5% CO2. 3000 cells were seeded in each well of a 96 well plate with 100 μL of medium. Before peptide treatment, cells were washed twice with PBS and treated with different concentrations of peptide in OPTIMEM (LifeTech). Media was added after 4 hrs of incubation at 37° C., and cells incubated for another 68 hrs. Tetrazolium (CellTiter96 AQueous One Solution Cell Proliferation Assay, Promega) was added after 72 hrs incubation with the peptides, and the plate was read at a plate reader at 490 nm after 1 hr of incubation in the dark at 37° C.

The subject of experiment [5] is PTEN. The experiment is described as follows: PTEN transcript level by quantitative real-time PCR in SNU398 cells. Type of experiment: cell-based. To be noted: Q-PCR.
In experiment [6] the test system is SNU398. The experiment can be described thus: RNA-seq transcriptome analysis of treated SNU398. Type of experiment: cell-based. As for the experimental part: SNU398 were treated PEN, PEN-MUT, PEN-WT & PEN-FFW for 8 hrs and paired-end RNA-seq was performed for the treated samples. RNA-seq reads of each sample were mapped to hg19 using the STAR aligner. Normalization between the samples was based on the proportionality of the numbers of the mapped reads. The expression fold change of a transcript was obtained using linear regression of the reads between the two samples cross all exons. Differential expression between two samples was selected by using the fold change cut off of 2. Hierarchical clustering was performed based on average linkage to generate the clustering tree as well as heat maps. For identification of enriched gene sets or pathways, Gene Set Enrichment Analysis (GSEA) was performed based on the normalized data and using the GSEA tool (broad.mit.edu/gsea/) with msigdb.v5.0.

T1 sequence (Q09028 whole entry): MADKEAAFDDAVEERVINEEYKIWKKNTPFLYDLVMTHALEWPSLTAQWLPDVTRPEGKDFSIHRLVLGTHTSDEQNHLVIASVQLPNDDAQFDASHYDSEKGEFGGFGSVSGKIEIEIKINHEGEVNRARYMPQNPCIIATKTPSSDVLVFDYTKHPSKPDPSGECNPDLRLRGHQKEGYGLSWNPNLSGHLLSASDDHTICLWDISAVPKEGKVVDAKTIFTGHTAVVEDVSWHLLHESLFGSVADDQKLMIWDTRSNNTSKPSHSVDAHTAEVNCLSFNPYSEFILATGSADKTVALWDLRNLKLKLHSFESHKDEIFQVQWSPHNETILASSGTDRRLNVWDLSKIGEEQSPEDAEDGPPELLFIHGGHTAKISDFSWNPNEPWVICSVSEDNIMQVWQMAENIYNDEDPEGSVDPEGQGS

“Ac-MSRRKQAKPQHI-NH2 [Peptide 1, reference compound]”: the equilibrium dissociation constant (Kd) in experiment [1] was determined as 1.04 ± 0.06 µM. For the same substance, in experiment [2], the dissociation rate constant (koff) worked out at 0.026 ± 0.00045 s⁻¹ and the kon was 16800 ± 460 M⁻¹ s⁻¹. This substance returned a concentration for half-maximal inhibition (IC50) in experiment [3] of 1.04 ± 0.2 µM. Moreover, in experiment [4], the “effect on cell number” value is “exerts an inhibitory effect on cell number”. For the same substance, in experiment [5], the “increase in PTEN expression compared to untreated cells” value worked out at 3 fold. Also, the “log2 fd versus Contr (PEN + Mut), ADORA2A-AS1” value in experiment [6] (gene ADORA2A-AS1, SNU398, 8 hrs) is listed as 1.05. Moreover, the “log2 fd versus Contr (PEN + Mut), AVPR2” value in experiment [6] (gene AVPR2, SNU398, 8 hrs) is 0.11. Also, in experiment [6] (gene CSAD, SNU398, 8 hrs), the “log2 fd versus Contr (PEN + Mut), CSAD” value was 0.25. Moreover, in experiment [6] (gene DNASE1L2, SNU398, 8 hrs), the “log2 fd versus Contr (PEN + Mut), DNASE1L2” value came out at 0.42. In addition, the “log2 fd versus Contr (PEN + Mut), LOC619207” value in experiment [6] (gene LOC619207, SNU398, 8 hrs) is given as 0.36. Besides, the “log2 fd versus Contr (PEN + Mut), NEIL1” value in experiment [6] (gene NEIL1, SNU398, 8 hrs) is 0.30. Also, in experiment [6] (gene PRKXP1, SNU398, 8 hrs), the “log2 fd versus Contr (PEN + Mut), PRKXP1” value was found to be 0.62. Also, the “log2 fd versus Contr (PEN + Mut), SSPO” value in experiment [6] (gene SSPO, SNU398, 8 hrs) came out at 0.99.
